Converted amounts (≈) assume the structure as drawn.

Broadly, the IC50 is the midpoint of a concentration-inhibition curve. What is called MIC80 is an inhibitory concentration at the 80% level, which refers to growth in some studies and to a panel of isolates in others. For orientation: MIC means the lowest concentration that inhibits growth of the organism. Usually EC50 stands for the concentration that produces a half-maximal response.

The test system of one test is Jurkat. In words: Antiproliferative activity against human jurkat cells assessed as cell growth inhibition incubated for 48 hrs by MTT assay. In kind it is functional, cell-based.
Another test concerns RS4-11. The test is described as follows: Antiproliferative activity against human RS4-11 cells assessed as cell growth inhibition incubated for 48 hrs by MTT assay. In kind it is functional, cell-based. The note with it: RS4-11, 48 h. (Tetrazolium dyes change colour on reduction, which living cells bring about.)
The subject of a further test is MCF7. In words: Antiproliferative activity against human MCF7 cells assessed as cell growth inhibition incubated for 48 hrs by MTT assay. The note with it: MCF7, 48 h. In kind it is functional, cell-based.
Another test has as its system HT-29. The test is described as follows: Antiproliferative activity against human HT-29 cells assessed as cell growth inhibition incubated for 48 hrs by MTT assay. The note with it: HT-29, 48 h. The test is classed as functional, cell-based.
The subject of the next test is HeLa. In words: Antiproliferative activity against human HeLa cells assessed as cell growth inhibition incubated for 48 hrs by MTT assay. The test is classed as functional, cell-based.
The subject of a further test is Plasmodium falciparum. In words: Antimalarial activity against Plasmodium falciparum. The test is classed as functional, organism-based.
In another test the test system is Candida albicans. The test is described as follows: Antifungal activity against Candida albicans Y0109 assessed as fungal growth inhibition. The test is classed as functional.
The subject of another test is BT-20. In words: Anticancer activity against human BT-20 cells assessed as cell growth inhibition incubated for 48 hrs by MTT assay. In kind it is functional, cell-based. As to conditions: BT-20, 48 h.
The subject of another test is DU-145. In words: Anticancer activity against human DU-145 cells assessed as cell growth inhibition incubated for 48 hrs by MTT assay. The test is classed as functional, cell-based. The note with it: DU-145, 48 h.
The next test concerns A549. The test is described as follows: Anticancer activity against human A549 cells assessed as cell growth inhibition incubated for 48 hrs by MTT assay. In kind it is functional, cell-based. The note with it: A549, 48 h.
Test [1] is described as follows: Anticancer activity against human SK-MEL-128 cells assessed as cell growth inhibition incubated for 48 hrs by MTT assay. The test is classed as functional, cell-based. The note with it: SK-MEL-128, 48 h.
The subject of test [2] is Mycobacterium tuberculosis. The test is described as follows: Antimycobacterial activity against Mycobacterium tuberculosis H37Rv measured after 21 days. The note with it: 504 h, time 21 day. In kind it is functional.
The subject of a further test is Staphylococcus aureus. In words: Antibacterial activity against Staphylococcus aureus assessed as bacterial growth inhibition incubated for 16 hrs. In kind it is functional.
For test [3], the system named is Xanthomonas oryzae pv. oryzae. The test is described as follows: Antibacterial activity against Xanthomonas oryzae pv. oryzae assessed as bacterial growth inhibition. In kind it is functional, organism-based.
Test [4] concerns Mycobacterium tuberculosis. The test is described as follows: Antimycobacterial activity against Mycobacterium tuberculosis H37Rv. In kind it is functional.
In test [5] the test system is Mycobacterium tuberculosis. The test is described as follows: Antimycobacterial activity against Mycobacterium tuberculosis H37Rv measured […] by MABA assay. In kind it is functional. On the technique in general: Alamar Blue is a resazurin reagent that responds to reducing activity.
Test [6] has as its system Mycobacterium tuberculosis. In words: Potency index, ratio of test compound MIC to Pyrazinamide MIC for antimycobacterial activity against Mycobacterium tuberculosis H37Rv. The test is classed as functional.
For the next test, the system named is Leishmania major. In words: Antileishmanial activity against promastigotes stage of Leishmania major. The test is classed as functional, organism-based.
The next test has as its system MDA-MB-231. In words: Antiproliferative activity against human MDA-MB-231 cells assessed as cell growth inhibition by MTT assay. In kind it is functional, cell-based.
Test [7] can be described thus: Inhibition of Mycobacterium tuberculosis shikimate dehydrogenase.
Test [8] concerns Mycobacterium tuberculosis. In words: Antimycobacterial activity against Mycobacterium tuberculosis H37Rv measured after 8 to 9 days. In kind it is functional. The note with it: time 8-9 day.
Where [9] appears, read: Plasmodium falciparum, read-out: IC50.

Consider `COc1cccc(-c2nc(N)n(C(=O)c3cc(OC)c(OC)c(OC)c3)n2)c1`, for which the IC50 in the test on Jurkat, with RS4-11, in the test on MCF7, in the test on HT-29 and with HeLa was under 1000 nM each time.

In the case of `Cc1nn(-c2ccccc2)c(-n2cncn2)c1-c1cc(-c2ccc(F)cc2)cc2nc3ccccc3n12`, the concentration for half-maximal inhibition (IC50) in the test on Plasmodium falciparum and with Plasmodium falciparum (setting [9]) was 0.041 µg/mL (≈ 0.0844 µM) throughout. As for `C=C(CCCC)C(=O)OC1CCN(CC(O)(Cn2cncn2)c2ccc(F)cc2F)CC1` (stereo not drawn), the MIC80 in the test on Candida albicans came to 9 nM (≈ 4.04 ng/mL). As to `CCN(CC)c1ccc2cc(C(=O)NNC(=O)Cn3nc(C)n(N)c3=O)c(=O)oc2c1`, the 50% inhibitory concentration (IC50) (with BT-20; in the test with DU-145; in the test with A549; in test [1]) was 3.1 µg/mL (≈ 7.22 µM) in each case. Take `CCC(=O)OC1CCN(CC(O)(Cn2cncn2)c2ccc(F)cc2F)CC1` (stereo not drawn): the MIC80 with Candida albicans stood at 9 nM (≈ 3.55 ng/mL). Regarding `CCCCCCCCCNC(=O)Cc1nnc2c3ccccc3cnn12`, 0.5 µg/mL (≈ 1.41 µM) was the least that counted as inhibitory in test [2] (MIC).

Consider `Cc1ccc(C(=O)NCc2nnc(S)n2/N=C/c2ccc([N+](=O)[O-])cc2)cc1`, for which the MIC with Staphylococcus aureus amounted to 3.12 µg/mL (≈ 7.88 µM). In the case of `COc1cccc(NC(=O)CSc2nnc(C3CCN(c4ncnc5ccccc45)CC3)n2-c2ccccc2)c1`, the EC50 in test [3] turned out to be 34.5 µg/mL (≈ 62.5 µM). Turning to `Cc1nn(-c2ccccc2)c(-n2cncn2)c1-c1cc(-c2ccccc2)cc2nc3ccccc3n12`, in the test on Plasmodium falciparum (setting [9]), the IC50 turned out to be 0.041 µg/mL (≈ 0.0877 µM). For `CC(=O)OC1CCN(CC(O)(Cn2cncn2)c2ccc(F)cc2F)CC1` (stereo not drawn), the MIC80 with Candida albicans was found to be 9 nM (≈ 3.42 ng/mL). With `O=C(OC1CCN(CC(O)(Cn2cncn2)c2ccc(F)cc2F)CC1)C(F)(F)F` (stereo not drawn), the MIC80 with Candida albicans was determined as 9 nM (≈ 3.91 ng/mL). Regarding `Brc1ccc(/C=C/c2nnc3c4ccccc4cnn23)cc1`, 0.5 µg/mL (≈ 1.42 µM) was the least that counted as inhibitory in [2] (MIC). In test [4], `OC1(c2nnc(-c3ccncc3)[nH]2)CCCC1` came in with an MIC of 0.59 µg/mL (≈ 2.56 µM). Turning to `COc1ccc(-n2ncn(Cc3cn(Cc4cc(=O)oc5ccc(C)cc45)nn3)c2=O)cc1`, it took 1.6 µg/mL (≈ 3.6 µM) to inhibit growth in test [5] (MIC). Further, the Ratio in [6] is 2. `Cc1nn(-c2ccccc2)c(-n2cncn2)c1-c1cc(-c2ccc(-c3cccs3)cc2)cc2nc3ccccc3n12`: the IC50 with Plasmodium falciparum (setting [9]) was determined as 0.041 µg/mL (≈ 0.0746 µM). Take `C[C@@H]1[C@H](O)[C@@H](C)/C=C/C=C/C=C/C=C/C=C/C=C/C=C/[C@H](O[C@@H]2O[C@H](C)[C@@H](O)[C@H](N)[C@@H]2O)C[C@@H]2O[C@](O)(C[C@@H](O)C[C@@H](O)[C@H](O)CC[C@@H](O)C[C@@H](O)CC(=O)O[C@H]1C)C[C@H](O)[C@H]2C(=O)O` [AMPHOTERICIN B]: in the test with Leishmania major, the IC50 was 0.0472 µg/mL (≈ 0.0511 µM).

As for `COc1ccc(/N=c2\scc(-c3cc4ccccc4oc3=O)n2-n2c(C)nn(-c3ccc(Br)cc3)c2=O)cc1`, the IC50 with MDA-MB-231 is 0.16 µg/mL (≈ 0.266 µM). `Brc1ccc(OCc2nn3c(-c4ccc(Br)cc4)nnc3s2)cc1` displayed an IC50 in test [7] of 14.42 µg/mL (≈ 30.9 µM). Moreover, it took 14.4 µg/mL (≈ 30.9 µM) to inhibit growth in test [8] (MIC). In test [4], `OC1(c2nnc(-c3ccncc3)[nH]2)CCCCC1` displayed a minimal inhibitory concentration (MIC) of 0.59 µg/mL (≈ 2.42 µM). Same read-out and setting: under `CC1CCC(O)(c2nnc(-c3ccncc3)[nH]2)CC1` (stereo not drawn) stands 0.59 µg/mL (≈ 2.28 µM). For `O=C(OC1CCN(CC(O)(Cn2cncn2)c2ccc(F)cc2F)CC1)C(F)(F)Cl` (stereo not drawn), in the test on Candida albicans, the MIC80 was 9 nM (≈ 4.06 ng/mL). Take `Clc1ccc(-c2nnc3sc(COc4ccc(Br)cc4)nn23)cc1`: in test [7], the IC50 was found to be 6.82 µg/mL (≈ 16.2 µM). Further, the MIC in test [8] was 6.82 µg/mL (≈ 16.2 µM). For `CCN(CC)c1ccc2cc(C(=O)NNC(=O)Cn3nc(Cc4ccc(Cl)c(Cl)c4)n(N)c3=O)c(=O)oc2c1`, the IC50 (with BT-20; in the test with DU-145; in the test on A549; in test [1]) was 3.1 µg/mL (≈ 5.4 µM) throughout. In the case of `CCCCCCCC(=O)OC1CCN(CC(O)(Cn2cncn2)c2ccc(F)cc2F)CC1` (stereo not drawn), the MIC80 in the test with Candida albicans is 9 nM (≈ 4.18 ng/mL). Regarding `Cc1nn(-c2ccccc2)c(=O)n1-n1c(-c2cc3ccccc3oc2=O)cs/c1=N\c1ccccc1`, the 50% inhibitory concentration (IC50) in the test on MDA-MB-231 was determined as 0.16 µg/mL (≈ 0.324 µM). In the case of `CC(C)=CCC/C(C)=C/COc1ccc(/C=C/c2nnc3c4ccccc4cnn23)cc1`, the minimal inhibitory concentration (MIC) in test [2] worked out at 0.5 µg/mL (≈ 1.18 µM). `CCCCCCC(=O)OC1CCN(CC(O)(Cn2cncn2)c2ccc(F)cc2F)CC1` (stereo not drawn): the MIC80 in the test on Candida albicans came out at 9 nM (≈ 4.05 ng/mL).

Take `Cc1nn(-c2ccccc2)c(-n2cncn2)c1-c1cc(-c2ccc(O)cc2)cc2nc3ccccc3n12`: the figures for the half-maximal inhibitory concentration (IC50) in the test on Plasmodium falciparum and with Plasmodium falciparum (setting [9]) were 0.041 µg/mL (≈ 0.0848 µM) and 0.054 µg/mL (≈ 0.112 µM), respectively. In the case of `Nn1c(Cc2ccc(Br)cc2)nn(CC(=O)NNC(=O)c2cc3cc(Cl)cc(Cl)c3oc2=O)c1=O`, the IC50 (in the test on BT-20; in the test with DU-145; with A549; in [1]) was 3.1 µg/mL (≈ 5.32 µM) throughout. Take `O=C(CCl)OC1CCN(CC(O)(Cn2cncn2)c2ccc(F)cc2F)CC1` (stereo not drawn): in the test with Candida albicans, the MIC80 was found to be 9 nM (≈ 3.73 ng/mL).

(Values after ChEMBL document CHEMBL5244255, “An insight on medicinal attributes of 1,2,4-triazoles” (Eur J Med Chem, 2020).)
